Assay results published in ChEMBL document CHEMBL3588748, “Original 2-(3-Alkoxy-1H-pyrazol-1-yl)azines Inhibitors of Human Dihydroorotate Dehydrogenase (DHODH)” (J Med Chem, 2015).
Calls of active or inactive are those of the source. How the calls were made is not given here.

Key:
Plasmodium falciparum = assay: Antiplasmodial activity against Plasmodium falciparum 3D7 assessed as inhibition of parasite growth at 8.66 ug/ml by SYBR Green I dye based assay; assay type: functional, organism-based

Description for Measles morbillivirus: Antiviral activity against measles virus rMV2/Luc infected in HEK-293T cells assessed as inhibition of virus growth incubated for 24 hrs by firefly luciferase reporter gene assay

Structure (SMILES) | pMIC50 (Measles morbillivirus) | growth inhibition (GI) (Plasmodium falciparum)
CCOc1nn(-c2ccc(C3CC3)nn2)c(C)c1Oc1ccc(C(F)(F)F)cc1 | 5.2 | inactive
Cc1c(Oc2ccccc2F)c(OC(C)C)nn1-c1ccc(C2CC2)nn1 | 7.4 | inactive
Cc1c(Oc2c(F)cccc2F)c(OC(C)C)nn1-c1ccc(Br)cn1 | 6.3 | inactive
CCOc1nn(-c2ccc(C(C)=O)cn2)c(C)c1Cc1ccccc1 | <5 | inactive
Cc1c(Oc2ccc(F)cc2F)c(OC(C)C)nn1-c1ccc(C2CC2)nn1 | 6.4 | inactive
CCOc1nn(-c2ccc(C3CC3)cn2)c(C)c1Oc1cc(Cl)ccc1Cl | 7.1 | inactive
CCc1nnc(-n2nc(OC(C)C)c(Oc3c(F)cccc3F)c2C)nc1O | 7.6 | inactive
Cc1c(Oc2ccc(F)cc2)c(OC(C)C)nn1-c1ccc(C2CC2)nn1 | 5.6 | inactive
CCOc1nn(-c2ccc(C3CC3)cn2)c(C)c1Oc1ccccc1 | 7 | inactive
Cc1c(Oc2c(F)cccc2F)c(OC(C)C)nn1-c1ccc(C(C)(F)F)cn1 | 7.1 | inactive
Cc1c(Oc2c(F)cccc2F)c(OC(C)C)nn1-c1cnc(C(F)(F)F)cn1 | 5.3 | inactive
CCOc1nn(-c2ccc(C(F)(F)F)cn2)c(C)c1Cc1ccccc1 | 5.5 | inactive
CCc1ccc(-n2nc(OC(C)C)c(Oc3c(F)cccc3F)c2C)cn1 | – | inactive
Cc1c(Oc2cccc(F)c2)c(OC(C)C)nn1-c1ccc(C2CC2)nn1 | 6.4 | inactive
Cc1c(Oc2c(F)cccc2F)c(OC(C)C)nn1-c1cnc(C2CC2)cn1 | – | inactive
CCOc1nn(-c2ccc(C3CC3)cn2)c(C)c1Oc1ccccc1F | 7.7 | inactive
CCOc1ccc(-n2nc(OC(C)C)c(Oc3c(F)cccc3F)c2C)nn1 | – | inactive
Cc1c(Oc2ccc(F)cc2F)c(OC(C)C)nn1-c1ccc(C2CC2)cn1 | 6.5 | inactive
Cc1c(Oc2c(F)cccc2F)c(OC(C)C)nn1-c1ccc(C(C)(C)O)cn1 | 6.7 | inactive
COc1ccc(-n2nc(OC(C)C)c(Oc3c(F)cccc3F)c2C)cn1 | – | inactive
CCOc1nn(-c2ccccn2)c(C)c1Cc1ccccc1 | <5 | inactive
COc1ccc(-n2nc(OC(C)C)c(Oc3c(F)cccc3F)c2C)nc1 | 7.3 | inactive
CCOc1nn(-c2ncc(Br)cc2F)c(C)c1Cc1ccccc1 | 5.9 | inactive
CCn1cnc(-n2nc(OC(C)C)c(Oc3c(F)cccc3F)c2C)c1 | – | inactive
Cc1c(Oc2c(F)cccc2F)c(OC(C)C)nn1-c1cnc(Br)cn1 | 5.5 | inactive
CCOc1nn(-c2cccc(C(F)(F)F)n2)c(C)c1Cc1ccccc1 | <5 | inactive

Structure (SMILES) | pMIC50 (Measles morbillivirus) | growth inhibition (GI) (Plasmodium falciparum)
CCOc1nn(-c2ccc(C3CC3)cn2)c(C)c1Oc1cccc(C(F)(F)F)c1 | 7.1 | inactive
CCOc1nn(-c2ccc(C3CC3)cn2)c(C)c1Oc1cccc(Cl)c1Cl | 7.9 | inactive
CCOc1nn(-c2ccc(C3CC3)nn2)c(C)c1Oc1ccccc1Br | 7.2 | inactive
Cc1c(Oc2c(F)cccc2F)c(OC(C)C)nn1-c1ccc(Cl)nn1 | 6.8 | inactive
Cc1c(Oc2cc(F)ccc2F)c(OC(C)C)nn1-c1ccc(C2CC2)nn1 | 7 | inactive
CCCc1cnc(-n2nc(OC(C)C)c(Oc3c(F)cccc3F)c2C)c(F)c1 | 6.7 | inactive
Cc1ccc(-n2nc(OC(C)C)c(Oc3c(F)cccc3F)c2C)nc1 | 7.6 | inactive
CCOc1nn(-c2ccc(C(=O)OC)cn2)c(C)c1Cc1ccccc1 | <5 | inactive
Cc1c(Oc2c(F)cccc2F)c(OC(C)C)nn1-c1cnc(C(C)(C)C)nc1 | – | inactive
CCc1cnc(-n2nc(OC(C)C)c(Oc3c(F)cccc3F)c2C)c(F)c1 | 7.1 | inactive
Cc1c(Oc2cccc(F)c2F)c(OC(C)C)nn1-c1ccc(C2CC2)cn1 | 7.4 | inactive
CCOc1nn(-c2ccc(C3CC3)nn2)c(C)c1Oc1cc(Cl)ccc1Cl | 6.9 | inactive
CCOc1nn(-c2ncccc2C)c(C)c1Cc1ccccc1 | <5 | inactive
CCOc1nn(-c2ccc(C3CC3)cn2)c(C)c1Oc1ccc(C(F)(F)F)cc1 | 5.3 | inactive
Cc1c(Oc2c(F)cccc2F)c(OC(C)C)nn1-c1cnc(C2CC2)nc1 | 6.8 | inactive
Cc1c(Oc2cccc(F)c2F)c(OC(C)C)nn1-c1ccc(C2CC2)nn1 | 7.4 | inactive
CCOc1nn(-c2ncccc2F)c(C)c1Cc1ccccc1 | 5.2 | inactive
CCOc1nn(-c2ccc(C3CC3)cn2)c(C)c1Oc1ccccc1Cl | 7.9 | inactive
Cc1c(Oc2cccc(F)c2)c(OC(C)C)nn1-c1ccc(C2CC2)cn1 | 6.8 | inactive
CCOc1nn(-c2ccc(C3CC3)cn2)c(C)c1Cc1ccccc1 | 7 | inactive
CCOc1nn(-c2ccc(C3CC3)nn2)c(C)c1Oc1cccc(C(F)(F)F)c1 | 6.4 | inactive
CCOc1nn(-c2ccc(Br)cn2)c(C)c1Cc1ccccc1 | 5.3 | inactive
CCOc1nn(-c2ccc(C3CC3)nn2)c(C)c1Oc1ccccc1Cl | 7.1 | inactive
CCOc1nn(-c2ccc(C#N)cn2)c(C)c1Cc1ccccc1 | <5 | inactive
Cc1cc(Br)cnc1-n1nc(OC(C)C)c(Oc2c(F)cccc2F)c1C | 5.9 | inactive
CCOc1nn(-c2cccc(C)n2)c(C)c1Cc1ccccc1 | <5 | inactive

Structure (SMILES) | pMIC50 (Measles morbillivirus) | growth inhibition (GI) (Plasmodium falciparum)
Cc1c(Oc2c(F)cccc2F)c(OC(C)C)nn1-c1ccc(C(F)(F)F)cn1 | 6.5 | inactive
CCOc1nn(-c2ccc(C3CC3)nn2)c(C)c1Oc1ccccc1F | 7.7 | inactive
CCOc1nn(-c2ccc(C(C)C)cn2)c(C)c1Cc1ccccc1 | 5.9 | inactive
CCOc1nn(-c2cc(C)ccn2)c(C)c1Cc1ccccc1 | 5.4 | inactive
CCOc1nn(-c2cccc(F)n2)c(C)c1Cc1ccccc1 | <5 | inactive
Cc1c(Oc2cc(F)ccc2F)c(OC(C)C)nn1-c1ccc(C2CC2)cn1 | 7.4 | inactive
Cc1ccc(-n2nc(OC(C)C)c(Oc3c(F)cccc3F)c2C)cn1 | – | inactive
CCOc1nn(-c2ccc(C3CC3)cn2)c(C)c1Oc1ccccc1C(F)(F)F | 7.3 | inactive
Cc1c(Oc2c(F)cccc2F)c(OC(C)C)nn1-c1ccccn1 | <5 | inactive
COc1cc(C2CC2)cnc1-n1nc(OC(C)C)c(Oc2c(F)cccc2F)c1C | 7.5 | inactive
CCOc1nn(-c2ccc(Cl)cn2)c(C)c1Cc1ccccc1 | 5.5 | inactive
CCOc1nn(-c2ccc(C(C)(C)O)cn2)c(C)c1Cc1ccccc1 | 5.3 | inactive
CCOc1nn(-c2ccc(C3CC3)cn2)c(C)c1Oc1cc(Cl)cc(Cl)c1 | 6.9 | inactive
CCc1ccc(-n2nc(OC(C)C)c(Oc3c(F)cccc3F)c2C)nc1 | 7.1 | inactive
COc1cnc(-n2nc(OC(C)C)c(Oc3c(F)cccc3F)c2C)cn1 | 6.1 | inactive
CCOc1nn(-c2ccc(C3CC3)cn2)c(C)c1Oc1ccccc1Br | 7.8 | inactive
Cc1c(-c2ccc(-c3ccccc3F)cc2)nc2ccc(F)cc2c1C(=O)O | – | inactive
Cc1c(Oc2c(F)cccc2F)c(OC(C)C)nn1-c1ncc(C2CC2)cc1OCc1ccccc1 | 7 | inactive
Cc1c(Oc2ccc(F)cc2)c(OC(C)C)nn1-c1ccc(C2CC2)cn1 [IPP/CNRS-A019] | 5.9 | inactive
CCOc1nn(-c2ccc(C3CC3)nn2)c(C)c1Oc1ccccc1C(F)(F)F | 6.8 | inactive
Cc1c(Oc2c(F)cccc2F)c(OC(C)C)nn1-c1ncc(C2CC2)cc1C#N | 8.1 | inactive
CCOc1nn(-c2ncc(C3CC3)cc2C#N)c(C)c1Cc1ccccc1 | 6.6 | inactive
CCOc1nn(-c2ccc(C3CC3)nn2)c(C)c1Oc1cccc(Cl)c1Cl | 7.4 | inactive
CCOc1nn(-c2ccc(OC)cn2)c(C)c1Cc1ccccc1 | 5.5 | inactive
CCOc1nn(-c2ccc(C3CC3)nn2)c(C)c1Oc1cc(Cl)cc(Cl)c1 | 6.2 | inactive
CCOc1nn(-c2ncc(Br)cc2C)c(C)c1Cc1ccccc1 | <5 | inactive
